Test results reported in patent US12012409B2, “Bicyclic heterocycles as FGFR inhibitors” (Incyte Corporation, priority 2020, dated 2024).

What was measured:
Format in all cases: biochemical
Details in all cases: wild-type un-phosphorylated protein; pre-incubated for 4 hours; ATP near or below Km
[1] = target: wild-type un-phosphorylated FGFR3 (Homo sapiens, UniProt P22607); assay: FGFR Enzymatic Assay (FRET peptide phosphorylation), FGFR3
Method: (§1) The inhibitor potency of the exemplified compounds was determined in an enzyme discontinuous assay that measures peptide phosphorylation using FRET measurements to detect product formation. Inhibitors were serially diluted in DMSO and a volume of 0.2 μL was transferred to the wells of a 384-well plate. […] Appropriate controls (enzyme blank and enzyme with no inhibitor) were included on the plate. […] The ATP Km values were pre-determined in a separate series of experiments. […] The plate was allowed to equilibrate for ˜10 minutes at ambient temperature before scanning on a PheraStar plate reader (BMG Labtech) instrument.
(§2) Either GraphPad prism or XLfit was used to analyze the data. The IC50 values were derived by fitting the data to a four parameter logistic equation producing a sigmoidal dose-response curve with a variable Hill coefficient. Prism equation: Y=Bottom+(Top−Bottom)/(1+10^((LogIC50−X)*Hill slope)); XLfit equation: Y=(A+((B−A)/(1+((X/C)^D)))) where X is the logarithm of inhibitor concentration and Y is the response.

[2] = target: wild-type un-phosphorylated FGFR1 (Homo sapiens, UniProt P11362); assay: FGFR Enzymatic Assay (FRET peptide phosphorylation), FGFR1
Sequence of wild-type un-phosphorylated FGFR1 (P11362 22-822): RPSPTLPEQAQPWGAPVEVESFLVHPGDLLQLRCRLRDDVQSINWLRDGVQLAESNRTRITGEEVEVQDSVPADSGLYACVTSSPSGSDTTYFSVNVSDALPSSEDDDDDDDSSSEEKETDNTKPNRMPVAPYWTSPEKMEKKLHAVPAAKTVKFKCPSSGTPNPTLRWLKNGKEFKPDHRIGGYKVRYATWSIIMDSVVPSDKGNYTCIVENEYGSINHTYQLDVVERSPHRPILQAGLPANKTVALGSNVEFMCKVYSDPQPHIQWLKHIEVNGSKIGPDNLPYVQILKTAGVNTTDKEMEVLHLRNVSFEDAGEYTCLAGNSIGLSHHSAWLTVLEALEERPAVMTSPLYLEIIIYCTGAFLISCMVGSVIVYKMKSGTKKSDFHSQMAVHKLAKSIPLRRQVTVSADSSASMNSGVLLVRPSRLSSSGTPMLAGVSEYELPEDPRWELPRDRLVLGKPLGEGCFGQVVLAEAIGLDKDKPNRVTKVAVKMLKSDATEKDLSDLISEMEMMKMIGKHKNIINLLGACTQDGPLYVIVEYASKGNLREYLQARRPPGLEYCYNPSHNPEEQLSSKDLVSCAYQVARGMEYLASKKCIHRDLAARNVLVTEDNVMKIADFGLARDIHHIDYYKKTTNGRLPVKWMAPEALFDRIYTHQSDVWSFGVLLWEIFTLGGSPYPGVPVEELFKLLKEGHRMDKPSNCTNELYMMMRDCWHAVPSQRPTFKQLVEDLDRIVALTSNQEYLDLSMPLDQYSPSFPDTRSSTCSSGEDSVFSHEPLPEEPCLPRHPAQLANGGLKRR
Method: as §1, §2

[3] = target: wild-type un-phosphorylated FGFR2 (Homo sapiens, UniProt P21802); assay: FGFR Enzymatic Assay (FRET peptide phosphorylation), FGFR2
Sequence of wild-type un-phosphorylated FGFR2 (P21802 22-821): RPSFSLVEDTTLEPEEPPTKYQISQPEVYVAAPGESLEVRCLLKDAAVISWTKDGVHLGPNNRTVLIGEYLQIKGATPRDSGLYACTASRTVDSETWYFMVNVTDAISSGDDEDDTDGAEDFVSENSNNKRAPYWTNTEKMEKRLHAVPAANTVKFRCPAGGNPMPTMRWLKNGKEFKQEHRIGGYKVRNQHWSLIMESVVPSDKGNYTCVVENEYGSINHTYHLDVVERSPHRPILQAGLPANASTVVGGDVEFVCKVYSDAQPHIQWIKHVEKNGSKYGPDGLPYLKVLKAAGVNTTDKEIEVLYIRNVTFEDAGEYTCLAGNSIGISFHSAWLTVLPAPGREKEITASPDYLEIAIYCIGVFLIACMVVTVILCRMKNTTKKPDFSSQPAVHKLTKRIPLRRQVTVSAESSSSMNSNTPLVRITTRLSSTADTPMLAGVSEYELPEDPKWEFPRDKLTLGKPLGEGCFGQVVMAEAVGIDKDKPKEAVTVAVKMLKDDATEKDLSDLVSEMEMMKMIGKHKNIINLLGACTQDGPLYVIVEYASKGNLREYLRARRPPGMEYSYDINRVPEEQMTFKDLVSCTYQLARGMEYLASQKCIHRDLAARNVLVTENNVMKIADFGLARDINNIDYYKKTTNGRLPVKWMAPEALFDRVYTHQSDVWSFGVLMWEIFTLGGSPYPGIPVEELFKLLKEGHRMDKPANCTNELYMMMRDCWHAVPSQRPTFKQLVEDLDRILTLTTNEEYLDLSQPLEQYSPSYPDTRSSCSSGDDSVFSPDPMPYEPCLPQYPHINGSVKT
Method: as §1, §2
(§3) The data in Table 1 was measured in wild-type un-phosphorylated FGFR1, FGFR2, FGFR3 and FGFR4 protein.

[4] = target: wild-type un-phosphorylated FGFR4 (Homo sapiens, UniProt P22455); assay: FGFR Enzymatic Assay (FRET peptide phosphorylation), FGFR4
Sequence of wild-type un-phosphorylated FGFR4 (P22455 22-802): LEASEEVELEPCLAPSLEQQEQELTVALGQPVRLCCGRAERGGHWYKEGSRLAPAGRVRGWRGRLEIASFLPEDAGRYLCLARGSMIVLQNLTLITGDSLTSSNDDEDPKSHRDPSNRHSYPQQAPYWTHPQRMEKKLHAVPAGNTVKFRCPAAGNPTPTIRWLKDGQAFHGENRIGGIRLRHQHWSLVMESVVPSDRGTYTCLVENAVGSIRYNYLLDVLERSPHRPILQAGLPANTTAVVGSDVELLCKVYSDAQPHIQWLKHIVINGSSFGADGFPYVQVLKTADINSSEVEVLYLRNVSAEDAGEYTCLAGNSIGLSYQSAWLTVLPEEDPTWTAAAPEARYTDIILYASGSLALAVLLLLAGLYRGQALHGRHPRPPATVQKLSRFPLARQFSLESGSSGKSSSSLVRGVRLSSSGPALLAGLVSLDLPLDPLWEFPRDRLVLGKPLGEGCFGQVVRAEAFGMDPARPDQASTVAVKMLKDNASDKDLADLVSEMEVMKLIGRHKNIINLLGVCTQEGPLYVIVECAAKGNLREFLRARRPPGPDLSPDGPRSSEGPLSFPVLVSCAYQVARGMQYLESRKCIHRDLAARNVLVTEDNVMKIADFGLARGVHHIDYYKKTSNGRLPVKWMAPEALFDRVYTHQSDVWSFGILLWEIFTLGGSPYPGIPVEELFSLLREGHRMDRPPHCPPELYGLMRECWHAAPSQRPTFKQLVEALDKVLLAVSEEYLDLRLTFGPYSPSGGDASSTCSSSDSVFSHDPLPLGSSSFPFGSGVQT
Method: as §1, §2, §3

Sequence of wild-type un-phosphorylated FGFR3 (P22607 23-806): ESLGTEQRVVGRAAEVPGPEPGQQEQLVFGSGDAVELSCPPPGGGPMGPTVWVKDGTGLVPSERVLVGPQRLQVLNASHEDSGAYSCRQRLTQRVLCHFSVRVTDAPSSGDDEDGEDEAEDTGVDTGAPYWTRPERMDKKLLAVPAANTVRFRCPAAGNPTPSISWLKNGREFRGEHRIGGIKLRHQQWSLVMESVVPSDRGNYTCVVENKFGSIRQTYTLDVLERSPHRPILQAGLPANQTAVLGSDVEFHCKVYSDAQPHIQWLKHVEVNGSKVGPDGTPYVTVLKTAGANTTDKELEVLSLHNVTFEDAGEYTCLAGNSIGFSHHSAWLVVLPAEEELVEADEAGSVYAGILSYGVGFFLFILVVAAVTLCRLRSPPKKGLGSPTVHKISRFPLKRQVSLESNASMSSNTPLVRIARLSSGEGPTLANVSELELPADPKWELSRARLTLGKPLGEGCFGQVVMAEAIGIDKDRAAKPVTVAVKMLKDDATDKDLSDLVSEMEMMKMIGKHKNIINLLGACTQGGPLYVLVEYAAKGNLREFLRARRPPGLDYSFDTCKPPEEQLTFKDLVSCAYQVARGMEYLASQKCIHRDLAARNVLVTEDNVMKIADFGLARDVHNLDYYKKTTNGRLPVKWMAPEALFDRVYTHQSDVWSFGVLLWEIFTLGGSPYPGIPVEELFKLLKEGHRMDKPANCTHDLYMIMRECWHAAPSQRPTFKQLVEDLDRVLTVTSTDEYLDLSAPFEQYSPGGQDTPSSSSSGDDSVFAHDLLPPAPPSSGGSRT

Row | SMILES | IC50 [1] [nM] | IC50 [2] [nM] | IC50 [3] [nM] | IC50 [4] [nM]
1 | CNC(=O)c1cc(-c2cnc3cc(-c4cnn(CCN5CCOCC5)c4)c(O[C@H]4CCOC4)nn23)c(F)c(C(F)F)c1 [Example 30, (S)-3-(Difluoromethyl)-4-fluoro-N-methyl-5-(7-(1-(2-morpholinoethyl)-1H-pyrazol-4-yl)-6-((tetrahydrofuran-3-yl)oxy)imidazo[1,2-b]pyridazin-3-yl)benzamide] | < 10 | 10 to 100 | < 10 | 10 to 100
2 | CNC(=O)c1cc(F)c(F)c(-c2cnc3cc(-c4cnn5c4CCC5)c(O[C@H]4CCOC4)nn23)c1 [Example 22, (S)-3-(7-(5,6-Dihydro-4H-pyrrolo[1,2-b]pyrazol-3-yl)-6-((tetrahydrofuran-3-yl)oxy)imidazo[1,2-b]pyridazin-3-yl)-4,5-difluoro-N-methylbenzamide] | < 10 | 10 to 100 | < 10 | 100 to 400
3 | CNC(=O)c1cccc(-c2cnc3cc(-c4cnn(C)c4)c(OC)nn23)c1 [Example 2, 3-(6-Methoxy-7-(1-methyl-1H-pyrazol-4-yl)imidazo[1,2-b]pyridazin-3-yl)-N-methylbenzamide] |  |  |  | ≥ 400
4 | CNC(=O)c1cc(F)c(F)c(-c2cnc3cc(-c4cnn(C5CCN(C(C)=O)CC5)c4)c(O[C@H]4CCOC4)nn23)c1 [Example 74, (S)-3-(7-(1-(1-Acetylpiperidin-4-yl)-1H-pyrazol-4-yl)-6-((tetrahydrofuran-3-yl)oxy)imidazo[1,2-b]pyridazin-3-yl)-4,5-difluoro-N-methylbenzamide] | < 10 | < 10 | < 10 | 
5 | CC(C)(O)Cn1cc(-c2cc3ncc(-c4cccc(-c5ccc(F)cc5F)c4)n3nc2O[C@H]2CCOC2)cn1 [Example 48, (S)-1-(4-(3-(2′,4′-Difluoro-[1,1′-biphenyl]-3-yl)-6-((tetrahydrofuran-3-yl)oxy)imidazo[1,2-b]pyridazin-7-yl)-1H-pyrazol-1-yl)-2-methylpropan-2-ol] | 10 to 100 | 10 to 100 | 10 to 100 | 
6 | CNC(=O)c1cc(F)c(F)c(-c2cnc3cc(-c4cnn(CCN5CCCC5=O)c4)c(O[C@H]4CCOC4)nn23)c1 [Example 75, (S)-3,4-Difluoro-N-methyl-5-(7-(1-(2-(2-oxopyrrolidin-1-yl)ethyl)-1H-pyrazol-4-yl)-6-((tetrahydrofuran-3-yl)oxy)imidazo[1,2-b]pyridazin-3-yl)benzamide] | < 10 | < 10 | < 10 | 
7 | CNC(=O)c1cc(F)c(F)c(-c2cnc3cc(-c4cnn(-c5ccccn5)c4)c(O[C@H]4CCOC4)nn23)c1 [Example 70, (S)-3,4-Difluoro-N-methyl-5-(7-(1-(pyridin-2-yl)-1H-pyrazol-4-yl)-6-((tetrahydrofuran-3-yl)oxy)imidazo[1,2-b]pyridazin-3-yl)benzamide] | < 10 | 100 to 400 | < 10 | 
8 | CNC(=O)c1cc(-c2cnc3cc(-c4cnn(C(C)(C)C#N)c4)c(O[C@H]4CCOC4)nn23)c(F)c(C(F)F)c1 [Example 26, (S)-3-(7-(1-(2-Cyanopropan-2-yl)-1H-pyrazol-4-yl)-6-((tetrahydrofuran-3-yl)oxy)imidazo[1,2-b]pyridazin-3-yl)-5-(difluoromethyl)-4-fluoro-N-methylbenzamide] | < 10 | 10 to 100 | < 10 | 
9 | CNC(=O)c1cc(CO)c(F)c(-c2cnc3cc(-c4cnn(C)c4)c(O[C@H]4CCOC4)nn23)c1 [Example 40, (S)-4-Fluoro-3-(hydroxymethyl)-N-methyl-5-(7-(1-methyl-1H-pyrazol-4-yl)-6-((tetrahydrofuran-3-yl)oxy)imidazo[1,2-b]pyridazin-3-yl)benzamide] | < 10 | 10 to 100 | < 10 | 
10 | CNC(=O)c1cc(-c2cnc3cc(-c4ccc(C(=O)NC)c(F)c4)c(O[C@H]4CCOC4)nn23)c(F)c(C(F)F)c1 [Example 36, (S)-3-(Difluoromethyl)-4-fluoro-5-(7-(3-fluoro-4-(methylcarbamoyl)phenyl)-6-((tetrahydrofuran-3-yl)oxy)imidazo[1,2-b]pyridazin-3-yl)-N-methylbenzamide] | 10 to 100 | 100 to 400 | 10 to 100 | 
11 | CC(C)n1cc(-c2cc3ncc(-c4ccc5c(c4)C(=O)NC5)n3nc2O[C@H]2CCOC2)cn1 [Example 77, (S)-6-(7-(1-Isopropyl-1H-pyrazol-4-yl)-6-((tetrahydrofuran-3-yl)oxy)imidazo[1,2-b]pyridazin-3-yl)isoindolin-1-one] | 10 to 100 | ≥ 400 | 10 to 100 | 
12 | CNC(=O)c1cccc(-c2cnc3cc(-c4cnn(C)c4)c(OC)cn23)c1 [Example 1, 3-(6-Methoxy-7-(1-methyl-1H-pyrazol-4-yl)imidazo[1,2-a]pyridine-3-yl)-N-methylbenzamide] | 10 to 100 | ≥ 400 |  | ≥ 400
13 | CNC(=O)c1cc(-c2cnc3cc(-c4ccc(N5CCCC5)nc4)c(O[C@H]4CCOC4)nn23)c(F)c(C(F)F)c1 [Example 32, (S)-3-(Difluoromethyl)-4-fluoro-N-methyl-5-(7-(6-(pyrrolidin-1-yl)pyridin-3-yl)-6-((tetrahydrofuran-3-yl)oxy)imidazo[1,2-b]pyridazin-3-yl)benzamide] | < 10 | 100 to 400 | < 10 | 
14 | CNC(=O)c1cc(F)c(F)c(-c2cnc3cc(-c4cnn(C5CCS(=O)(=O)C5)c4)c(O[C@H]4CCOC4)nn23)c1 (stereo partly drawn) [Example 69, 3-(7-(1-(1,1-Dioxidotetrahydrothiophen-3-yl)-1H-pyrazol-4-yl)-6-(((S)-tetrahydrofuran-3-yl)oxy)imidazo[1,2-b]pyridazin-3-yl)-4,5-difluoro-N-methylbenzamide] | < 10 | 10 to 100 | < 10 | 
15 | CNC(=O)c1cc(F)c(F)c(-c2cnc3cc(-c4cnn(C(C)C)c4)c(O[C@H]4CCOC4)nn23)c1 [Example 24, (S)-3,4-Difluoro-5-(7-(1-isopropyl-1H-pyrazol-4-yl)-6-((tetrahydrofuran-3-yl)oxy)imidazo[1,2-b]pyridazin-3-yl)-N-methylbenzamide] | < 10 | < 10 | < 10 | 
16 | CNC(=O)c1cc(-c2cnc3cc(-c4cnn5ccccc45)c(O[C@H]4CCOC4)nn23)c(F)c(C(F)F)c1 [Example 27, (S)-3-(Difluoromethyl)-4-fluoro-N-methyl-5-(7-(pyrazolo[1,5-a]pyridin-3-yl)-6-((tetrahydrofuran-3-yl)oxy)imidazo[1,2-b]pyridazin-3-yl)benzamide] | 10 to 100 | 10 to 100 | 10 to 100 | 
17 | CNC(=O)c1cc(F)c(F)c(-c2cnc3cc(-c4ccncc4)c(O[C@H]4CCOC4)nn23)c1 [Example 72, (S)-3,4-Difluoro-N-methyl-5-(7-(pyridin-4-yl)-6-((tetrahydrofuran-3-yl)oxy)imidazo[1,2-b]pyridazin-3-yl)benzamide] | < 10 | 100 to 400 | 10 to 100 | 
18 | CNC(=O)c1cccc(-c2cnc3cc(-c4cnn(C)c4)c(OC4COC4)nn23)c1 [Example 58, N-Methyl-3-(7-(1-methyl-1H-pyrazol-4-yl)-6-(oxetan-3-yloxy)imidazo[1,2-b]pyridazin-3-yl)benzamide] |  |  | < 10 | 100 to 400
19 | CNC(=O)c1cc(F)c(F)c(-c2cnc3cc(-c4cnn(C5CCN(C)CC5)c4)c(O[C@H]4CCOC4)nn23)c1 [Example 71, (S)-3,4-Difluoro-N-methyl-5-(7-(1-(1-methylpiperidin-4-yl)-1H-pyrazol-4-yl)-6-((tetrahydrofuran-3-yl)oxy)imidazo[1,2-b]pyridazin-3-yl)benzamide] | < 10 | < 10 | < 10 | 
20 | CNC(=O)c1cc(-c2cnc3cc(-c4cnn([C@H]5CC[C@H](O)CC5)c4)c(O[C@H]4CCOC4)nn23)c(F)c(C(F)F)c1 [Example 34, 3-(Difluoromethyl)-4-fluoro-5-(7-(1-((1r,4S)-4-hydroxycyclohexyl)-1H-pyrazol-4-yl)-6-(((S)-tetrahydrofuran-3-yl)oxy)imidazo[1,2-b]pyridazin-3-yl)-N-methylbenzamide] | < 10 | < 10 | < 10 | 
